The source made the active and inactive calls. The rule behind the calls is not given here. *1 amine or outer side, *2 acyl side, *3 side chain or, on linkers, in order; H or OH if unused. Where a SMILES comes first, the peptide text is derived from it. Bridges are numbered along the chain shown (N, C = ends). Roman numbers before positions name the chains, in order. [ ]: non-standard residue; d: D form. Actinocin(1to9) = Cc1c2oc3c(C)ccc(C(=O)[*:2])c3nc-2c(C(=O)[*:1])c(N)c1=O; NMeV = CN[C@H](C(=O)O)C(C)C; Sar = CNCC(=O)O
Columns and labels:
THP-1 = assay: Cytotoxicity against human THP1 cells after 20 hrs by MTS assay; format: functional, cell-based; settings: THP-1, 20 h
HeLa = assay: Cytotoxicity against human HeLa cells after 20 hrs by MTS assay; format: functional, cell-based
Vero = assay: Cytotoxicity against african green monkey Vero cells after 20 hrs by MTS assay; format: cell-based; settings: Chlorocebus sabaeus
U-937 = assay: Cytotoxicity against human U937 cells after 20 hrs by MTS assay; format: functional, cell-based; settings: U-937, 20 h
A549 [1] = assay: Cytotoxicity against human A549 cells after 20 hrs by SRB assay; format: functional, cell-based; settings: A549, 20 h
MOLT-3 = assay: Cytotoxicity against human MOLT3 cells after 20 hrs by MTS assay; format: functional, cell-based; settings: MOLT-3, 20 h
Nucleic Acid [2] = assay: Binding affinity to calf thymus DNA by UV titration analysis; format: nucleic-acid assay; settings: Bos taurus
Nucleic Acid [3] = assay: Binding affinity to Escherichia coli supercoiled phiX174 RF1 DNA assessed as DNA unwinding in presence of topoisomerase 1 after 30 mins by agarose gel electrophoresis; format: nucleic-acid assay
Nucleic Acid [4] = assay: Binding affinity to poly-d(AT)2 DNA by UV titration analysis; format: nucleic-acid assay
Nucleic Acid [5] = assay: Binding affinity to polyd(GC)2 DNA by UV titration analysis; format: nucleic-acid assay
A549 [6] = assay: Cytotoxicity against human A549 cells assessed as reduction of cell number at 0.5 ug/ml after 8 hrs relative to control; format: functional; parameters: scale not given: the % may be the effect or the level left

SMILES	IC50 (THP-1) [µM]	IC50 (HeLa) [µM]	IC50 (Vero) [µM]	IC50 (U-937) [µM]	IC50 (A549 [1]) [µM]	IC50 (MOLT-3) [µM]	Kb (Nucleic Acid [2])	Activity (Nucleic Acid [3])	Kb (Nucleic Acid [4]) [×10⁵ /M]	Kb (Nucleic Acid [5]) [×10⁵ /M]	Activity (A549 [6]) [%]
CN(C)C(=O)[C@H]1C[C@H](c2cc3ccccc3c3ccccc23)N(C)O1	95	86	160	98	68	105					
CN(C)C(=O)C1CC(c2cc3ccccc3c3ccccc23)=NO1 (configuration not stated)	> 500	401	> 500	> 500	435	> 500					
CN(C)C(=O)C1CC(c2ccc3ccc4cccc5ccc2c3c45)=NO1 (configuration not stated)	69	69	160	194	49	65					
CN(C)C(=O)c1cc(-c2cc3ccccc3c3ccccc23)no1	403	290	> 500	> 500	335	420					
CN(C)C(=O)c1cc(-c2ccc3ccc4cccc5ccc2c3c45)no1	78	71	165	202	60	73					
CN(C)C(=O)[C@@H]1CON(C)[C@H]1c1ccc2ccc3cccc4ccc1c2c34 (racemic)	61	65	143	185	44	59					
CN(C)C(=O)[C@H]1CON(Cc2ccccc2)[C@H]1c1ccc2ccc3cccc4ccc1c2c34 (racemic)	93	79	151	102	63	100					
CN(C)C(=O)[C@@H]1C[C@H](c2ccc3ccc4cccc5ccc2c3c45)N(C)O1 (racemic)	75	75	163	199	55	69					
CN(C)C(=O)[C@H]1C[C@H](c2ccc3ccc4cccc5ccc2c3c45)N(Cc2ccccc2)O1 (racemic)	6	5	42	37	4	6	1.7 ×10⁵ /M	Active	1.6	0.3	
CN(C)C(=O)[C@H]1C[C@H](c2ccc3ccc4cccc5ccc2c3c45)N(C)O1 (racemic)	60	63	141	165	41	52					
CN(C)C(=O)[C@H]1C[C@H](c2cc3ccccc3c3ccccc23)N(Cc2ccccc2)O1 (racemic)	17	14	115	100	10	15					
CN1O[C@H](CO)C[C@@H]1c1ccc2ccc3cccc4ccc1c2c34 (relative stereo)							6.8 ×10³ /M				
Cc1c2oc3c(C)ccc(C(=O)N[C@@H]4C(=O)N[C@H](C(C)C)C(=O)N5CCC[C@H]5C(=O)N(C)CC(=O)N(C)[C@@H](C(C)C)C(=O)O[C@@H]4C)c3nc-2c(C(=O)N[C@@H]2C(=O)N[C@H](C(C)C)C(=O)N3CCC[C@H]3C(=O)N(C)CC(=O)N(C)[C@@H](C(C)C)C(=O)O[C@@H]2C)c(N)c1=O [DACTINOMYCIN] (I: T[dV]P[Sar][NMeV] / II: T[dV]P[Sar][NMeV]; ester I:1-I:C, II:1-II:C; linker I:N-II:N via Actinocin(1to9))											40

From ChEMBL document CHEMBL2010654, “Novel isoxazole polycyclic aromatic hydrocarbons as DNA-intercalating agents” (Eur J Med Chem, 2012)
